Test system: hind limb rendered ischemic
Experiment: Hind limb ischemia model, SVF-CULT cells with modified redox state (antimycin and/or PDTC)
Format: in vivo, mouse
Settings: daily i.p. injection (50 μl at 40 nM) after the injection of the SVF-CULT cells
Method: The angiogenic potential of the SVF-CULT cells treated, in vitro, with antimycin (40 nM) and/or pyrrolidine dithiocarbamate (PDTC; 0.5 mM) two days before the injection, was analyzed in the model of the mouse with a hind limb rendered ischemic, as described in Example 1. Furthermore, after the injection of the SVF-CULT cells treated with antimycin alone, by adding antimycin to the culture medium, or not treated, the mice were or were not given a daily i.p. injection of antimycin (50 μl at 40 nM). The mice treated similarly with PDTC alone or in combination with antimycin receive no treatment after the injection of cells.
The angiogenic potential of the nontreated SVF-CULT cells, in mice not treated after the injection of the cells, was analyzed in parallel, by way of comparison. The control group was given an injection of ethanol, under the same conditions.
The neovascularization process was analyzed by microangiography and, optionally, by laser Doppler, 8 days after femoral occlusion. The statistical analysis was carried out by means of an ANOVA-type variance test for comparing each parameter (n=5 for each group). A Bonferroni t test subsequently made it possible to identify the groups causing these differences. A value of P<0.05 is considered to be significant.

## antimycin
  effect on revascularization when administered directly to the animal: no effect

— patent US20120207722A1, “Use Of Adipose Tissue Cells For Initiating The Formation Of A Functional Vascular Network” (CENTRE NATIONAL DE LA RECHERCHE SCIENTIFIQUE, priority 2003, published 2012)
